The conditions of data set [1]: humans; cited from earlier work.
The test system of data set [2] is subjects with schizophrenia. The data set is described as follows: Correlation of pre-treatment resting-state EEG metrics (power law exponent, beta power) with response to poma treatment (MCCB domain scores), clinical trials NCT00845026 and NCT01052103. It counts as in vivo, human. Particulars: subgroups of patients identified by EEG metrics (Examples 1-3). The source says: The power spectrum of resting state EEG signals, when viewed in the frequency domain (that is, with frequency of oscillation on the x-axis and power on the y-axis), forms roughly a straight line, when viewed on a log-log plot; see FIG.5 (from Miller et al. […] PLoS Comput Biol 5(12): e1000609)
Mathematically, this can be expressed as log (P)=k−βlog (f), or equivalently, P αf−β1/fβ), where P=power, f=frequency, −β is the slope of the fitted line, and k is a constant. This phenomenon is known by various terms, such as a “power law” spectrum or “1/f noise”. It is often referred to as “scale invariant” or “fractal” behavior (Lowen and Teich, 2005), as the power law exponent, β, is constant regardless of the resolution at which it is calculated.
This study used data from clinical trials NCT00845026 (N=117) and NCT01052103 (N=196), which studied male and female subjects with schizophrenia treated with poma vs. antipsychotic agent standard of care. […] We calculated only power at the stimulated frequency and, for recordings in the resting state, the power law exponent (PLE; also known as the “fractal exponent”). […] We calculated all predictive measures for each EEG electrode. […]

In data set [3] the test system is subjects with schizophrenia. Particulars: cited from earlier work.

Here are results for two compounds from patent US20220313170A1, “METHOD OF INCREASING COGNITIVE FUNCTION WITH GLUTAMATE RECEPTOR AGONIST” (priority 2019, published 2022).

Each structure is given as a SMILES string.

For the compound `N[C@@]1(C(=O)O)CS(=O)(=O)[C@H]2[C@H](C(=O)O)[C@H]21` [pomaglumetad], the “Oral absorption and bioavailability” value in data set [1] was “low”.

Turning to `CSCC[C@H](N)C(=O)N[C@@]1(C(=O)O)CS(=O)(=O)[C@H]2[C@H](C(=O)O)[C@H]21` [poma, Pomaglumetad methionil], the “Cognitive function in measures of working memory, reasoning/problem solving, and attention/vigilance” value in data set [2] is listed as “significant improvement in cognitive function”. Further, the “Efficacy versus placebo as determined with PANSS total scores” value in data set [3] (clinical studies, halted) is given as “not significantly more efficacious than the placebo”. Besides, the “Dosage shown to be efficacious” value in data set [3] (early phase II monotherapy trial) is given as 40 mg BID.
